For six molecules, ΔTm and binding results are on record in paper PMC8308870 (2021).

For experiment [1], the system named is h-Telo (FRET) (DNA, G4) GGGTTAGGGTTAGGGTTAGGG
The experiment is described as follows: FRET melting. The conditions noted are these: 60 mM K+, pH 7.4, 0.2 µM DNA.

In experiment [2] the test system is k-RAS (CD) (DNA, G4) AGGGCGGTGTGGGAAGAGGGA
Description: CD titration. The settings on record: 50 mM K+, 50 mM LiCl; 20 mM lithium cacodylate, 20 °C; 10 µM DNA, 0–25 eq; ellipticity decrease, 295 nm band.

Experiment [3] relates to h-Telo (CD) (DNA, G4) GGGTTAGGGTTAGGGTTAGGG
Description: CD titration. The settings on record: 10 mM K+, 90 mM LiCl, 20 mM lithium cacodylate, 20 °C, 10 µM DNA, 0–25 eq.

The test system is the same in experiment [4]. The experiment is described as follows: CD melting (290 nm). The settings on record: 10 mM K+, 90 mM LiCl; 20 mM lithium cacodylate, pH 7.2; 10 µM DNA; compound 5 eq.
For experiment [5], the system named is k-RAS (FRET) (DNA, G4) AGGGCGGTGTGGGAAGAGGGA
The experiment is described as follows: FRET melting. The settings on record: 60 mM K+, pH 7.4, 0.2 µM DNA.

Experiment [6] deals with T-Loop (t-Loop) (DNA, hairpin) TATAGCTATATTTTTTTATAGCTATA
Description: FRET melting. The settings on record: 60 mM K+, potassium cacodylate, pH 7.4, 0.2 µM DNA.

The test system of experiment [7] is Pu27mut (DNA, G4) TGGGGAGGGTGGAAAGGGTGGGGAAGG
Description: CD titration. The conditions noted are these: 10 mM K+, 2 mM Mg2+, 10 mM (NH4)2SO4; ThermoPol buffer (20 mM Tris-HCl, 0.1% Triton X-100), pH 8.8; parallel G4 induced.

Experiment [8] deals with k-RAS (CD) (DNA, G4) AGGGCGGTGTGGGAAGAGGGA
The experiment is described as follows: CD melting (265 nm). The settings on record: 50 mM K+, 50 mM LiCl; 20 mM lithium cacodylate, pH 7.2; 10 µM DNA; compound 5 eq.

Experiment [9] has as its system c-MYC (Pu27) (DNA, G4) TGGGGAGGGTGGGGAGGGTGGGGAAGG
Description: CD melting (265 nm). The settings on record: 100 mM LiCl, no K+ listed; 20 mM lithium cacodylate, pH 7.2; 10 µM DNA; compound 5 eq.

Where [10] appears, read: cacodylate, compound 5 µM (25 eq).

Structures are written as SMILES. Where only a bound is given, the exact number is not on record here.

As usually defined, the ΔTm is the shift of the melting midpoint relative to a reference.

Consider `C[n+]1cc(NC(=O)c2cccc(C(=O)Nc3c[n+](C)cc4ccccc34)n2)c2ccccc2c1`, for which the ΔTm in experiment [1] (potassium cacodylate, compound 25 eq (5 µM)) is 22.7 ± 0.2 °C; in [4] it was 14.9 ± 0.2 °C. Further, the binding entry in experiment [2] and in experiment [3] (hybrid to antiparallel switch) was “yes” in each case.
Consider `C[n+]1cc(NC(=O)c2cccc(C(=O)Nc3cc4ccccc4[n+](C)c3)n2)cc2ccccc21`, for which the ΔTm in experiment [5] (potassium cacodylate, compound 5 eq (1 µM)) was 35.6 ± 0.3 °C; in experiment [6] (compound 5 eq (1 µM)), 6.5 ± 0.1 °C; in [8], above 40 °C; in experiment [9], above 40 °C. Moreover, the binding result in experiment [3] (hybrid to parallel switch) and in experiment [7] was “yes” each time.
`C[n+]1ccc(NC(=O)c2cccc(C(=O)Nc3cc[n+](C)c4ccccc34)n2)c2ccccc21`: the binding entry in [2] and in [3] (topology maintained) was “yes” in each case.
With `C[n+]1ccc2c(NC(=O)c3cccc(C(=O)Nc4cccc5c[n+](C)ccc45)n3)cccc2c1`, the ΔTm in experiment [6] (compound 25 eq (5 µM)) is 1.8 ± 0.2 °C; in [8] it was 12.2 ± 0.2 °C; in [4], 4.4 ± 0.2 °C; in experiment [9], 5.3 ± 0.1 °C. For the same molecule, the binding entry in experiment [2] and in experiment [3] (topology maintained) was “yes” each time.
Turning to `O=C(Nc1ccc2ccccc2n1)c1cccc(C(=O)Nc2ccc3ccccc3n2)n1`, in [1] (setting [10]), the ΔTm is below 0.5 °C.
As to `O=C(Nc1cncc2ccccc12)c1cccc(C(=O)Nc2cncc3ccccc23)n1`, the ΔTm in [5] (setting [10]) is below 0.5 °C.
